Assay results reported in US20130091932A1, “Process and Method for Broad Spectrum Amino Acid Challenged Urinary Organic Acids” (priority 2011, published 2013).

Tests used:
[1] = system: urinary metabolic markers; test: 38-person study: amino acid challenge, overnight urinary organic acid profile pre vs post challenge; assay type: in vivo, human; conditions: in some subjects
Protocol: An initial pilot study was conducted using 3 subjects. A second study was conducted using 38 adult subjects who were chosen as having no diagnosed diseases and normal work habits. […] On two consecutive nights urine was collected for performing analysis of 46 compounds included in a profile of organic acids. On the second night, a single bolus of crystalline pure L-amino acids was consumed dissolved in water. All amino acids used were L-stereoisomers unless designated otherwise by the “D-”prefix. In the 3-person pilot, dosing included tyrosine, valine, leucine, isoleucine, histidine, and tryptophan as free-form or chloride salts at a total load of approximately 400 mg/kg body weight. For the 38-subject study, the dosing formula included a similar mixture containing alanine, valine, leucine, isoleucine, histidine, and tryptophan. Table 1 summarizes the amino acids included in the challenge formula, urinary metabolic markers affected and related nutrients or metabolic effects. The Amino acid challenge dose protocol was as follows. For 2 consecutive nights, participants collected overnight urine specimens. On the second night, before going to bed, they took approximately 400 mg/kg body weight of the challenge dose of amino acids. […]

[2] = up to 15 g, human studies; cited from earlier work

Row | Structure (SMILES) | levels of pyruvate, succinate, fumarate and malate [1] | safety of administration [2]
1 | C[C@H](N)C(=O)O [L-alanine] | increased levels | 
2 | N[C@@H](Cc1c[nH]cn1)C(=O)O [L-histidine] |  | administered safely
